Measurements taken from paper PMC4129108, “The natural triterpene 3β,6β,16β-trihydroxy-lup-20(29)-ene obtained from the flowers of Combretum leprosum induces apoptosis in MCF-7 breast cancer cells” (BMC Complementary and Alternative Medicine, 2014).
In brackets after ≈: the same amount, converted by molar mass.

What was measured:
[1] = tested on: MCF-7 (breast adenocarcinoma); assay: XTT cell viability assay, MCF-7; type: cell-based, human; settings: for IC50: XTT
Procedure: (§1) The human cell lines MCF-7 (breast adenocarcinoma), HepG2 (hepatoma), T24 (bladder cancer), CACO-2 (colorectal adenocarcinoma) and MRC5 (lung normal fibroblast) were obtained from the Rio de Janeiro Cell Bank (Rio de Janeiro, RJ, Brazil). The HCT116 cell (colorectal carcinoma), and HT29 cell (colorectal adenocarcinoma) were kindly provided by Dr. Annette K. Larsen (Institut National de la Santé et de la Recherche Médicale - INSERM, Paris, França). All cell lines except MCF-7 were grown in DMEM supplemented with 10% or 20% (for CACO-2) FBS, 100 units.mL^-1 penicillin and 100 μg.mL^-1 streptomycin at 37°C in a humidified atmosphere of 5% CO2. MCF-7 cells were maintained in RPMI-1640 supplemented with 20% FBS at the same conditions described above.
(§2) The cytotoxic potential of the TTHL was evaluated by the XTT assay in human tumor cell lines as well as in MRC5 normal fibroblasts. Cells (1 × 10^4 cells) were seeded on 96-well plates in growth medium and incubated overnight. Afterwards, TTHL (0.5, 1.0, 2.5, 5.0, and 10 μg/mL) was added to each well and incubated for 24, 48, 72, and 120 h. Mitoxantrone, a cytostatic anthracenedione that intercalates in DNA and increases the incidence of double-strand breaks by stabilizing the cleavable complex of topoisomerase II and DNA, was used as positive control. At the end of each treatment, cell viability was assessed according to the manufacturer’s instructions. Briefly, after discarding the medium, 1 mL of XTT labeling mixture was added to the cells and incubated for 2 h at 37°C. Absorbance was measured with a SpectraMax reader (Bio-Rad, USA) at a test wavelength of 492 nm (A492) and a reference wavelength of 690 nm (A690). The final result corresponds to A492-A690. The absorbance of negative control cells was set as 100% viability, and the values for treated cells were calculated as a percentage of the control.
(§3) The IC20, IC50, and IC80 values and their 95% confidence intervals (CI 95%) were obtained by nonlinear regression using GraphPad Prism v5 program (Intuitive Software for Science, San Diego, CA, USA). Selective index (SI) was calculated by IC50 in MRC5 cells/IC50 in tumoral cells. All experiments were independently repeated at least three times, with triplicate samples for each treatment. Results are expressed as means ± standard deviation (SD). Data were analyzed by one-way analysis of variance (ANOVA), and means were compared using Tukey test, with P ≤ 0.05 considered as statistically significant.

[2] = tested on: HT29 cell (colorectal adenocarcinoma); assay: XTT cell viability assay, HT29; type: cell-based, human; settings: for IC50: Homo sapiens, HT-29, XTT
Procedure: as §1, §2, §3

[3] = tested on: cleaved caspase-9 in MCF-7 cells; assay: Quantification of cleaved caspase-9 by flow cytometric analysis; type: cell-based, human; settings: MCF-7, 24 h
Procedure: Cells (2 × 10^5 cells/mL) were seeded on 6-well tissue culture plates, and grown for 1 day up to 70–80% confluence before treatment with the test substance. The TTHL was added to medium with FBS to obtain the different concentrations, and cells were treated at 37°C for 24 h in humidified atmosphere containing 5% CO2.
After treatment, cells (1 × 10^6) were harvested, resuspended in 25 μL PBS and fixed with 4% formaldehyde. After permeabilization and blocking (0.2% Triton X-100 in PBS and 1% BSA), cells were incubated with anti-caspase-9 antibody (diluted 1:1000) for 1 h at room temperature, followed by incubation with anti-rabbit FITC secondary antibody (Uniscience) (diluted 1:1000) for 1 h at room temperature in the dark. A total of 10,000 events were analyzed per sample by FACS Calibur flow cytometer. Fluorescence intensity in arbitrary units was plotted in histograms; the mean fluorescence intensity was calculated using CellQuest software.

[4] = tested on: S. cerevisiae EG110 (sod2Δ); assay: Yeast survival assay, EG110 (sod2Δ); type: cell-based, Saccharomyces cerevisiae; settings: for survival (percentage in relation to negative control): STAT cells, 1 h in PBS 30°C
Procedure: (§4) Media, solutions and buffers were prepared according to Burke et al.. YPD medium (0.5% yeast extract, 2% peptone, 2% glucose) was used for routine growth. Synthetic medium SC (0.67% yeast nitrogen base, 0.1% ammonium sulfate, 2% glucose) supplemented with the appropriate amino acids and bases ([…]) was used for the detection of mutations.
(§5) Stationary phase (STAT) cultures were obtained by inoculation of a single colony into liquid YPD. We chose to work in the stationary phase of growth because this resembles most cells of multicellular organisms in important aspects: (i) most energy comes from mitochondrial respiration; (ii) the cells have left the active cell cycle and have entered the Go phase; and (iii) damage accumulates over time.
(§6) STAT cells (1 × 10^8 cells/mL) were exposed to TTHL (10–500 μg/mL) and incubated under growth conditions for 1 h in PBS at 30°C. Cells were then washed and treated with H2O2 (5 mM) in PBS for another hour. Suitable aliquots were plated in triplicate on solid YPD (2–3 days, 30°C) and colony-forming units were counted. Sensitivity was expressed as a percentage of survival in relation to the negative control (solvent).

[5] = tested on: S. cerevisiae EG133 (sod1Δsod2Δ); assay: Yeast survival assay, EG133 (sod1Δsod2Δ); type: cell-based, Saccharomyces cerevisiae; settings: for survival (percentage in relation to negative control): STAT cells, 1 h in PBS 30°C
Procedure: as §4, §5, §6

[6] = deficient in superoxide dismutase

Structure (SMILES): C=C(C)[C@@H]1CC[C@@]2(C)[C@H]1[C@H]1CC[C@@H]3[C@@]4(C)CC[C@H](O)C(C)(C)[C@@H]4[C@H](O)C[C@@]3(C)[C@]1(C)C[C@@H]2O [TTHL, 3β,6β,16β-trihydroxy-lup-20(29)-ene]
- IC20 ([1]; Homo sapiens, MCF7, MCF-7, 24 h, determined by XTT assay, read-out: IC20 (20% inhibitory concentration)): 0.5 µg/mL (≈ 1.09 µM)
- IC80 ([1]; Homo sapiens, MCF7, MCF-7, 24 h, determined by XTT assay, read-out: IC80 (80% inhibitory concentration)): 3.7 µg/mL (≈ 8.07 µM)
- IC50 ([1]; Homo sapiens, MCF7, MCF-7, 24 h treatment): 1.36 ± 0.05 µg/mL (≈ 2.96 µM)
- IC50 ([1]; Homo sapiens, MCF7, MCF-7, 48 h treatment): 0.73 ± 0.05 µg/mL (≈ 1.59 µM)
- IC50 ([1]; Homo sapiens, MCF7, MCF-7, 72 h treatment): 0.63 ± 0.04 µg/mL (≈ 1.37 µM)
- IC50 ([1]; Homo sapiens, MCF7, MCF-7, 120 h treatment): 0.3 ± 0.04 µg/mL (≈ 0.654 µM)
- Selectivity index (SI) ([1]; IC50 in MRC5 cells/IC50 in MCF-7, 48 h): 10 X
- Selectivity index (SI) ([1]; IC50 in MRC5 cells/IC50 in MCF-7, 72 h): 12 X
- Selectivity index (SI) ([1]; IC50 in MRC5 cells/IC50 in MCF-7, 120 h): 23 X
- IC50 ([2]; HT29, 24 h treatment): 8 ± 0.14 µg/mL (≈ 17.4 µM)
- IC50 ([2]; HT29, 48 h treatment): 7 ± 0.42 µg/mL (≈ 15.3 µM)
- IC50 ([2]; HT29, 72 h treatment): 6.15 ± 0.21 µg/mL (≈ 13.4 µM)
- IC50 ([2]; HT29, 120 h treatment): 5.3 ± 0.28 µg/mL (≈ 11.6 µM)
- Selectivity index (SI) ([2]; IC50 in MRC5 cells/IC50 in HT29, 24 h): 1 X
- Selectivity index (SI) ([2]; IC50 in MRC5 cells/IC50 in HT29, 48 h): 1 X
- Selectivity index (SI) ([2]; IC50 in MRC5 cells/IC50 in HT29, 72 h): 1 X
- Selectivity index (SI) ([2]; IC50 in MRC5 cells/IC50 in HT29, 120 h): 1 X
- levels of cleaved caspase-9 ([3]; TTHL at IC20): no significant changes
- induction of cleaved caspase-9-labeled cells ([3]; TTHL at IC50): increased induction of cleaved caspase-9-labeled cells
- induction of cleaved caspase-9-labeled cells ([3]; TTHL at IC80): increased induction of cleaved caspase-9-labeled cells
- survival (percentage in relation to negative control) ([4]; TTHL 10 μg/mL): 83.20 ± 3.68 %
- survival (percentage in relation to negative control) ([4]; TTHL 50 μg/mL): 72.90 ± 7.07 %
- survival (percentage in relation to negative control) ([4]; TTHL 100 μg/mL): 62.25 ± 3.32 %
- survival (percentage in relation to negative control) ([4]; TTHL 500 μg/mL): 56.65 ± 1.06 %
- sensitivity of the strain to TTHL (in words) [4, 6]: hypersensitive
- survival (percentage in relation to negative control) ([5]; TTHL 10 μg/mL): 79.35 ± 2.19 %
- survival (percentage in relation to negative control) ([5]; TTHL 50 μg/mL): 67.85 ± 10.54 %
- survival (percentage in relation to negative control) ([5]; TTHL 100 μg/mL): 58.15 ± 3.89 %
- survival (percentage in relation to negative control) ([5]; TTHL 500 μg/mL): 41.45 ± 4.03 %
- sensitivity of the strain to TTHL (in words) [5, 6]: hypersensitive
